Experimental data: paper PMC5148701 (Journal of medicinal chemistry, 2016)
pEC50, pIC50, pKi: −log10 of the molar value. Values joined by “and” are separate entries in the source; they are usually repeats but may differ in a detail not shown here. Equal entries are not always repeated. “Also recorded” adds a separate entry of the source. Where two headings read alike, the source gives them in different places.

Key:
D4R = target: T1, D4R (Homo sapiens, UniProt P21917); test: Radioligand binding, D4R
T1 sequence (P21917 1-419): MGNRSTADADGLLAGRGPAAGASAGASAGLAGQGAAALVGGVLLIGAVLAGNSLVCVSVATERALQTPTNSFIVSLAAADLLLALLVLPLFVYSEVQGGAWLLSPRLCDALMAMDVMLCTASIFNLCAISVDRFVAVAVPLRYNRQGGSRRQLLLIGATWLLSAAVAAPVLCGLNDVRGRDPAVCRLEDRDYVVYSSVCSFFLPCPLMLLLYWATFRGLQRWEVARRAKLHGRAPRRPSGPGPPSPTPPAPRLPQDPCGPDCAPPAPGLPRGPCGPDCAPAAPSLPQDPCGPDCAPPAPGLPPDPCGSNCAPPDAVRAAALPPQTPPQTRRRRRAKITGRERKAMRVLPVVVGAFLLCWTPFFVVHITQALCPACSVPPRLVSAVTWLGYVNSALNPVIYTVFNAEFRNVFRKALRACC

5-HT7 = 5-HT7 (Homo sapiens, UniProt P34969); test: Radioligand binding, 5-HT7
5-HT2B = 5-HT2B (Homo sapiens, UniProt P41595); test: Radioligand binding, 5-HT2B
D3R = D3R (Homo sapiens, UniProt P35462); test: Radioligand binding, D3R
human D2Rlong [1] = target: T2, human D2Rlong (Homo sapiens, UniProt P14416); test: DiscoverX PathHunter D2R β-arrestin-2 recruitment assay; assay type: cell-based; conditions: D2R-expressing CHO cells; up to 10 µM; n=1, performed in duplicate
hD2L receptors = hD2L receptors (Homo sapiens, UniProt P14416); test: D2R Gi/o-mediated cAMP inhibition assay; assay type: cell-based; conditions: for Emax: HEK-293T; for cAMP Emax (%): HEK293T cells, GloSensor-22F
5-HT2A = 5-HT2A (Homo sapiens, UniProt P28223); test: Radioligand binding, 5-HT2A
5-HT1B = 5-HT1B (Homo sapiens, UniProt P28222); test: Radioligand binding, 5-HT1B
D2R = D2R (Homo sapiens, UniProt P14416); test: Radioligand binding, D2R
5-HT1D = 5-HT1D (Homo sapiens, UniProt P28221); test: Radioligand binding, 5-HT1D
D2L receptors = D2L receptors (Homo sapiens, UniProt P14416); test: D2R β-arrestin-2 recruitment Tango assay; assay type: cell-based; conditions: for Emax: HTLA, read-out: β-arrestin Emax (%); for EC50: β-arrestin EC50 (nM)
5-HT1A = target: T3, 5-HT1A (Homo sapiens, UniProt P08908); test: Radioligand binding, 5-HT1A
T3 sequence (P08908 1-422): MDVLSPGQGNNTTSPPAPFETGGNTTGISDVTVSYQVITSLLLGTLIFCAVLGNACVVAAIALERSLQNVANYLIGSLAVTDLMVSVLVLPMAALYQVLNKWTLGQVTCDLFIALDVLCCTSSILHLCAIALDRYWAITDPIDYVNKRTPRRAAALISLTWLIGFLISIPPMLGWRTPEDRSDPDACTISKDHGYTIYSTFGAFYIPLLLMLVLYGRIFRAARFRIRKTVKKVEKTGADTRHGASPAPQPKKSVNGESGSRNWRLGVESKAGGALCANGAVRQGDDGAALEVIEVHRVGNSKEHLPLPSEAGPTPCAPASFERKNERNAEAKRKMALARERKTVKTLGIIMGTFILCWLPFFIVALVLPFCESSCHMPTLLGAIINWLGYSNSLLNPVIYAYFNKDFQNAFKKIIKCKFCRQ

human D2Rlong [2] = target: T2, human D2Rlong; test: cell-based; conditions: for Gαi1-Gγ2 dissociation BRET partial agonist activity relative to quinpirole: HEK293T cells
mouse D2Long = mouse D2Long (Mus musculus, UniProt P61168); test: BRET β-arrestin-2 recruitment assay with GRK2 co-expression; assay type: cell-based; conditions: for β-arrestin-2 recruitment agonist activity in BRET assay: up to 1 µM, GRK2 co-expressed
5-HT5A = 5-HT5A (Homo sapiens, UniProt P47898); test: Radioligand binding, 5-HT5A
5-HT3 = target: T4, 5-HT3 (Homo sapiens, UniProt P46098); test: Radioligand binding, 5-HT3
T4 sequence (P46098 24-478): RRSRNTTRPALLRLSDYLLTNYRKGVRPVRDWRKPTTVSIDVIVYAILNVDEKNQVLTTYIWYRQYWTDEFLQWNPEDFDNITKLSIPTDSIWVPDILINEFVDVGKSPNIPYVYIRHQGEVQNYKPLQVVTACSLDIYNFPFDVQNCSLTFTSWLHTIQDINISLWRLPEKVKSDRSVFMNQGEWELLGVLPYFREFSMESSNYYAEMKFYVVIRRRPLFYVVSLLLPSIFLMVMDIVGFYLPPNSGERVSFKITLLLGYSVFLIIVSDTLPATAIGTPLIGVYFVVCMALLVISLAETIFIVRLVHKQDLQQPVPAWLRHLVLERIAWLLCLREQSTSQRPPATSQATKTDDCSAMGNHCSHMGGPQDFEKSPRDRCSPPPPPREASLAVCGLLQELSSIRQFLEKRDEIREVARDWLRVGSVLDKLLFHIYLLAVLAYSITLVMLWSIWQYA

D1R = D1R (Homo sapiens, UniProt P21728); test: Radioligand binding, D1R
D5R = D5R (Homo sapiens, UniProt P21918); test: Radioligand binding, D5R
5-HT6 = 5-HT6 (Homo sapiens, UniProt P50406); test: Radioligand binding, 5-HT6
H2-histamine receptor = H2-histamine receptor (Homo sapiens, UniProt P25021); test: Radioligand binding, H2
5-HT2C = target: T5, 5-HT2C (Homo sapiens, UniProt P28335); test: Radioligand binding, 5-HT2C
T5 sequence (P28335 33-458): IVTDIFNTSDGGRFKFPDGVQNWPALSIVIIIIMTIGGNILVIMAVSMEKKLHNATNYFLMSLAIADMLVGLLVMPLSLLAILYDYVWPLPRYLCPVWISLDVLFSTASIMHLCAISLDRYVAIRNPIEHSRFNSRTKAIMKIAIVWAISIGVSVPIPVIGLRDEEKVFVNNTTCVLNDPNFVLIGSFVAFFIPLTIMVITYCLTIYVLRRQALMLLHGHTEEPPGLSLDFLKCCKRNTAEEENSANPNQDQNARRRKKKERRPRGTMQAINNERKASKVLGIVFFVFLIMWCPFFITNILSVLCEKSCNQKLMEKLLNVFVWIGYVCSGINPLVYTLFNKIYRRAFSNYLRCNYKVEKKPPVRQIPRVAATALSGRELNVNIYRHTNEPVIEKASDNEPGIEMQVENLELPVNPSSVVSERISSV

[3] = Binding affinity Ki (nM), 5-HT2B
[4] = read-out: cAMP Emax (%), HEK293T cells, GloSensor-22F, normalized to maximum cAMP inhibition by quinpirole (100%)
[5] = Binding affinity Ki (nM), 5-HT1A
[6] = normalized to maximum cAMP inhibition by quinpirole (100%)

Sequence of 5-HT1D (P28221 whole entry, species assumed): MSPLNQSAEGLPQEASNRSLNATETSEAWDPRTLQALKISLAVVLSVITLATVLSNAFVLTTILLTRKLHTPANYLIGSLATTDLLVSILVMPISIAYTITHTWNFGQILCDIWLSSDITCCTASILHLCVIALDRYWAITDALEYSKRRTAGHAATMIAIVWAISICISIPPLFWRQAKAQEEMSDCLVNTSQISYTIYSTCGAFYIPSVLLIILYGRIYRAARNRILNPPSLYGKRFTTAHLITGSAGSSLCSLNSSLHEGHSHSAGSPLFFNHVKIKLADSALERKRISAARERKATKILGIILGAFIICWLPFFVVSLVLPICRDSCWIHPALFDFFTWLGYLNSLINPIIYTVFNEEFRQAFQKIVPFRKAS
Sequence of 5-HT1B (P28222 whole entry, species assumed): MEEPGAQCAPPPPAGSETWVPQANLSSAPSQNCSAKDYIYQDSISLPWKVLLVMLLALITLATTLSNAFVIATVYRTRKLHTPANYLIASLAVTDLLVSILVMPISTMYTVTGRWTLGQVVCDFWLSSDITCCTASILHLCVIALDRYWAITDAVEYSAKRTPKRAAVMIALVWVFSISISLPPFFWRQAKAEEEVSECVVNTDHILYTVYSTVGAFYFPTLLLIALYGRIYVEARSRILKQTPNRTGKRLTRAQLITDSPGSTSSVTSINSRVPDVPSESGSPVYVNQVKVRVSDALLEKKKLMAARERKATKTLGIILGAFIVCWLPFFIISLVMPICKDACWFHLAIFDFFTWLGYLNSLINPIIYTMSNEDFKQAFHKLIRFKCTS
Sequence of 5-HT7 (P34969 whole entry, species assumed): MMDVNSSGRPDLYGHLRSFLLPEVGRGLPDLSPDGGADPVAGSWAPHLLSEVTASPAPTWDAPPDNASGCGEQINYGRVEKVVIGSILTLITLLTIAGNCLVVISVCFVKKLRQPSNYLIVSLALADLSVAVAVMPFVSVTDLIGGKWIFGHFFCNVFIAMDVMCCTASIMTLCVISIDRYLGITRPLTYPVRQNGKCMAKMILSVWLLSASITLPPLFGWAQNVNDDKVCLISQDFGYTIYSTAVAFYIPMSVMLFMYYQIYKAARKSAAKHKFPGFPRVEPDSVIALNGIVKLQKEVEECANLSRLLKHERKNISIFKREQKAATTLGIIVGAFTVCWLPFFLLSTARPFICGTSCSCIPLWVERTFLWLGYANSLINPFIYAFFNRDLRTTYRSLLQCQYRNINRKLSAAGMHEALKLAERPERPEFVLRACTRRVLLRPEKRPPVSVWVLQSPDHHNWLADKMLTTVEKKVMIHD
Sequence of D1R (P21728 whole entry): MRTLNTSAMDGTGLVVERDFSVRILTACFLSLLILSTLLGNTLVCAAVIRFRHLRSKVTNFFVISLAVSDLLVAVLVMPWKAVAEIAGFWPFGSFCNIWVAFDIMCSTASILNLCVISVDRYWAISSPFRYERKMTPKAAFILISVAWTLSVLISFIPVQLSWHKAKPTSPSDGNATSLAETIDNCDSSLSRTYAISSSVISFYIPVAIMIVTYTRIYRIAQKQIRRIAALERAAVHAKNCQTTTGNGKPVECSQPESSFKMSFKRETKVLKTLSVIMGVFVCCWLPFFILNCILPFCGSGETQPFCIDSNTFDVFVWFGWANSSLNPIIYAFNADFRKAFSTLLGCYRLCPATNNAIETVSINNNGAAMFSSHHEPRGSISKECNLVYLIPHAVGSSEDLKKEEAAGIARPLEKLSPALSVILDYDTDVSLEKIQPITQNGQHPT
Sequence of mouse D2Long (P61168 whole entry): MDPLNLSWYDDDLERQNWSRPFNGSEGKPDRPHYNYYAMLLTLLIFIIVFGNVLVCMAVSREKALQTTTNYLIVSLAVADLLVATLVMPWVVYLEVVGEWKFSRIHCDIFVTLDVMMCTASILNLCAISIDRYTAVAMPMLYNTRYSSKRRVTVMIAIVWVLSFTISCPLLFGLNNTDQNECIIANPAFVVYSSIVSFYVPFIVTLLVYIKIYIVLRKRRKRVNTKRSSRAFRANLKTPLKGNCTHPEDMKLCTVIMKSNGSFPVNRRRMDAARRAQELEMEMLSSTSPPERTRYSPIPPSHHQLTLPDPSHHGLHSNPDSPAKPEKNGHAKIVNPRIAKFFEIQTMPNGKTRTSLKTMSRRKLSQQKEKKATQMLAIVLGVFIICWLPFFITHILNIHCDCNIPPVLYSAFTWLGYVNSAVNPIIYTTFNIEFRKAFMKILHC
Sequence of D3R (P35462 whole entry): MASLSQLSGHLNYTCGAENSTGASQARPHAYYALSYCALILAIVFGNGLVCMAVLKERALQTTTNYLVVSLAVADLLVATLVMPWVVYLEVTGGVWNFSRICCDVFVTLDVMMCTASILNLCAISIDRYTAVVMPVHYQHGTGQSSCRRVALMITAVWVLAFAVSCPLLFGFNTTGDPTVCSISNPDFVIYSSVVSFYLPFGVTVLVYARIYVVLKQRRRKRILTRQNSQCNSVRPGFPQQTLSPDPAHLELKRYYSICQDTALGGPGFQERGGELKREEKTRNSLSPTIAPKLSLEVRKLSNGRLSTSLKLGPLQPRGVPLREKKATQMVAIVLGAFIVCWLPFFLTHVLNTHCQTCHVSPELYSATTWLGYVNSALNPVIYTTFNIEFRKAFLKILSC
Sequence of 5-HT2A (P28223 whole entry, species assumed): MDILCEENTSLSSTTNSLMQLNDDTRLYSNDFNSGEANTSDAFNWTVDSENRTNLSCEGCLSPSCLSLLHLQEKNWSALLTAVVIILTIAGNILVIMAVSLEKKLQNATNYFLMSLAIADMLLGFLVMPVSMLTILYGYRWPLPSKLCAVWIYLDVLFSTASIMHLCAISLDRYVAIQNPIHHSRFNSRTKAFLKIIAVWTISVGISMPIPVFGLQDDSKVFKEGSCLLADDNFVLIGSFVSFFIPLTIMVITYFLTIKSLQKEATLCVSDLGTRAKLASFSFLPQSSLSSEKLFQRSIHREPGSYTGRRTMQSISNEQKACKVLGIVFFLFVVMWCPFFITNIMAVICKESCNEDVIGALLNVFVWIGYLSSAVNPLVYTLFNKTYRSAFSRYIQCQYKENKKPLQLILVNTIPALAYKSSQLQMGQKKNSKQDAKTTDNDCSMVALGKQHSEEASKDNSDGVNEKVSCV
Sequence of 5-HT2B (P41595 whole entry, species assumed): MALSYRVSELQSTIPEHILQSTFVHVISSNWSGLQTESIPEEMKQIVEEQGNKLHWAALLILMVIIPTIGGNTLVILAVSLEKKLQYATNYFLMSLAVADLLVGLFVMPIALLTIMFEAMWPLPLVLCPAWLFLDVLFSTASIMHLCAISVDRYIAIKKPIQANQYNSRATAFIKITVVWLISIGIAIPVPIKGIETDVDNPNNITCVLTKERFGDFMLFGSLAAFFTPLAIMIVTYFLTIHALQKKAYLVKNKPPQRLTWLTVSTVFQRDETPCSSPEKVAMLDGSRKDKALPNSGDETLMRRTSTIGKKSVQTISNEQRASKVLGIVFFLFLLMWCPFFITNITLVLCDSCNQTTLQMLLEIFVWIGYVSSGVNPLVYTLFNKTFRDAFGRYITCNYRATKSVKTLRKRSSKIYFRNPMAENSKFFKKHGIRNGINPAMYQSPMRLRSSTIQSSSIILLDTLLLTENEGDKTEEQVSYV
Sequence of D2L receptors (P14416 whole entry): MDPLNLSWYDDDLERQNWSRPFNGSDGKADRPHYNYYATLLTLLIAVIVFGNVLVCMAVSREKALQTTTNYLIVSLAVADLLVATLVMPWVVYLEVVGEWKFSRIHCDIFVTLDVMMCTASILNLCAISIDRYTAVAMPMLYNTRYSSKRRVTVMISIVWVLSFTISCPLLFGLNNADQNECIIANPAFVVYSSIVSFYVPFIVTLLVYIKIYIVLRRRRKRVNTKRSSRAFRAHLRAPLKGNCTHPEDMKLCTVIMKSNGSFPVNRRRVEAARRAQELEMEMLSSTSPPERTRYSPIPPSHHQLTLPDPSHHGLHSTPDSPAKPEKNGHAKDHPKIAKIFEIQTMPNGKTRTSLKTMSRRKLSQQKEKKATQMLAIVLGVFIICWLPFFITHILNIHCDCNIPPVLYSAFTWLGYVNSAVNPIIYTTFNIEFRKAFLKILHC
Sequence of D2R (P14416 whole entry): as above
Sequence of hD2L receptors (P14416 whole entry): as above
T2 sequence (P14416 whole entry): as above
Sequence of D5R (P21918 whole entry): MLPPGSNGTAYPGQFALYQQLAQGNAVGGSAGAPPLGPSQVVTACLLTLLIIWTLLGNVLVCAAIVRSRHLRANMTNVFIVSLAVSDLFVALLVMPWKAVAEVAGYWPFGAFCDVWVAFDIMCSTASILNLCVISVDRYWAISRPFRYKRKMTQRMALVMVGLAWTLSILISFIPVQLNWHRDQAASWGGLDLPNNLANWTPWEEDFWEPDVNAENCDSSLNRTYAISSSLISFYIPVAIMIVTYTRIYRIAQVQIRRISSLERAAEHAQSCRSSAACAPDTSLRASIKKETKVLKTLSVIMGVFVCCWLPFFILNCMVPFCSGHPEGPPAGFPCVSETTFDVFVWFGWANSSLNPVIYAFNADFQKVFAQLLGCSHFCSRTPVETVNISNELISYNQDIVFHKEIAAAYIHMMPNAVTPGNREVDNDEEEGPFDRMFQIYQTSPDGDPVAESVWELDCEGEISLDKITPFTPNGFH
Sequence of 5-HT5A (P47898 whole entry, species assumed): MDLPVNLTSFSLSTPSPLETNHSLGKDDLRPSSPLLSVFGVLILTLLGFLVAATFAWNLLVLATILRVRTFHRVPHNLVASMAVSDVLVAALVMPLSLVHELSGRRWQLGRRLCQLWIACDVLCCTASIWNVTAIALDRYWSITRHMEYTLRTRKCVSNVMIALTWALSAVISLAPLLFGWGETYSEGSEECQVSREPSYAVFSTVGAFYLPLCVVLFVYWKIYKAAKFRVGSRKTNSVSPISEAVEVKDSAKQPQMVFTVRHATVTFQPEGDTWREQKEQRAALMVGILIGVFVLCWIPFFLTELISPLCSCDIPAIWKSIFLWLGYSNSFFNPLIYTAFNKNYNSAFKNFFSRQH

| SMILES | pKi (D4R) | pKi (5-HT7) | Ki (5-HT2B; [3]) [nM] | pKi (D3R) | β-arrestin recruitment activity as measured by DiscoverX (human D2Rlong [1]) | Emax (hD2L receptors; [4]) [%] | pKi (5-HT2A) | pKi (5-HT1B) | pKi (D2R) | pKi (5-HT1D) | Emax (D2L receptors) [%] | Ki (5-HT1A; [5]) [nM] | β-arrestin-2 recruitment agonist activity in BRET assay (mouse D2Long) | cAMP Emax (%) (hD2L receptors; [6]) | pKi (D1R) | pKi (D5R) | further results |
| --- | --- | --- | --- | --- | --- | --- | --- | --- | --- | --- | --- | --- | --- | --- | --- | --- | --- |
| Cc1nc2cc(OCCCCN3CCN(c4cccc(Cl)c4Cl)CC3)ccc2s1 [Compound 1, 5-(4-(4-(2,3-Dichlorophenyl)piperazin-1-yl)butoxy)-2-methylbenzo[d]thiazole] | 7.09 | 6.85 | 38 | 7.89 | lack of β-arrestin-2 recruitment activity; also recorded: no activity | 50 | 6.92 | 5.77 | 6.82 | 6.49 | 23 | 86 | no activity | – | – | – | inhibition of dopamine-stimulated D2R G protein activation as measured by cAMP inhibition (hD2L receptors; antagonist mode, Figure S2): partial inhibition; EC50 (D2L receptors; Tango assay, HTLA cells): 13 nM; pEC50 (human D2Rlong [2]): 8.44; Gαi1-Gγ2 dissociation BRET partial agonist activity relative to quinpirole (human D2Rlong [2]): 57%; pIC50 (mouse D2Long): 7.74; antagonist activity on dopamine-stimulated β-arrestin-2 recruitment (BRET) (mouse D2Long; antagonist mode): full antagonist activity |
| CCc1nc2cc(OCCCCN3CCC(c4cccc(Cl)c4Cl)CC3)ccc2s1 [Compound 46, 5-(4-(4-(2,3-Dichlorophenyl)piperidin-1-yl)butoxy)-2-ethylbenzo[d]thiazole] | 5.74 | – | 71 | 7.00 | – | 40 to 50 | 6.85 | – | 6.77 | 6.09 | < 20 | 100 | not active; also recorded: no β-arrestin recruitment | 43 | 5.77 | – | pKi (5-HT5A): 5.80; pKi (5-HT3): 5.82 |
| CNc1nc2cc(OCCCCN3CCC(c4cccc(Cl)c4Cl)CC3)ccc2s1 [Compound 54, 5-(4-(4-(2,3-Dichlorophenyl)piperidin-1-yl)butoxy)-N-methylbenzo[d]thiazol-2-amine] | 6.37 | – | < 20 | 7.16 | – | 40 to 50 | 7.15 | 5.59 | 7.00 | 6.39 | – | 66 | not active; also recorded: no β-arrestin recruitment | – | 5.96 | 5.74 | pKi (5-HT6): 6.39 |
| Oc1c(CN2CCN(c3ccccn3)CC2)cc(Cl)c2cccnc12 [Compound 59, 5-Chloro-7-((4-(pyridin-2-yl)piperazin-1-yl)methyl)quinolin-8-ol, reference compound] | – | – | – | – | lack of β-arrestin-2 recruitment activity; also recorded: no activity | – | – | – | – | – | 67 | – | – | – | – | – | Emax (hD2L receptors; read-out: cAMP Emax (%)): 63%; EC50 (D2L receptors; Tango assay, HTLA cells): 102 nM and 46 nM; Emax (mouse D2Long; HEK-293T, read-out: β-arrestin-2 recruitment BRET Emax (% of quinpirole)): 68% |
| CC(C)c1nc2cc(OCCCCN3CCN(c4cccc5c4OCCO5)CC3)ccc2s1 [Compound 53, 5-(4-(4-(2,3-Dihydrobenzo[b][1,4]dioxin-5-yl)piperazin-1-yl)butoxy)-2-isopropylbenzo[d]thiazole] | 7.11 | 7.51 | – | 7.51 | lack of β-arrestin-2 recruitment activity; also recorded: no activity | 30 to 40 | 7.54 | 6.38 | 7.52 | 7.00 | < 20 | 1.4 | not active; also recorded: no β-arrestin recruitment | – | 5.70 | 5.96 | pKi (5-HT3): 5.59; pEC50 (human D2Rlong [2]): 8.34; Gαi1-Gγ2 dissociation BRET partial agonist activity relative to quinpirole (human D2Rlong [2]): 47% |
| CNc1nc2cc(OCCCCN3CCN(c4cccc(Cl)c4Cl)CC3)ccc2s1 [Compound 24, 5-(4-(4-(2,3-Dichlorophenyl)piperazin-1-yl)butoxy)-N methylbenzo[d]thiazol-2-amine] | – | – | – | – | – | – | – | – | – | – | – | – | not active; also recorded: no β-arrestin recruitment | 40 | – | – | Ki (D4R; read-out: Binding affinity Ki (nM), D4R, radioligand binding): 280 nM; Ki (5-HT7; read-out: Binding affinity Ki (nM), 5-HT7, radioligand binding): 100 nM; Ki (5-HT2B; read-out: Binding affinity Ki (nM), 5-HT2B): 12 nM; Ki (D3R; read-out: Binding affinity Ki (nM), D3R, radioligand binding): 35 nM; Ki (5-HT2A; read-out: Binding affinity Ki (nM), 5-HT2A, radioligand binding): 72 nM; Ki (D1R; read-out: Binding affinity Ki (nM), D1R, radioligand binding): 1100 nM; Ki (D5R; read-out: Binding affinity Ki (nM), D5R, radioligand binding): 1500 nM; Ki (5-HT1B; read-out: Binding affinity Ki (nM), 5-HT1B, radioligand binding): 1400 nM; Ki (D2R; read-out: Binding affinity Ki (nM), D2R, radioligand binding): 60 nM; Ki (5-HT1D; read-out: Binding affinity Ki (nM), 5-HT1D, radioligand binding): 390 nM; β-arrestin Emax (%) (D2L receptors; Tango assay, HTLA cells, normalized to quinpirole (100%)): <20%; Ki (5-HT1A; read-out: Binding affinity Ki (nM), 5-HT1A): 55 nM |
| Cc1ccc2cccc(N3CCN(CCCCOc4ccc5sc(C(C)C)nc5c4)CC3)c2n1 [Compound 49, 2-Isopropyl-5-(4-(4-(2-methylquinolin-8-yl)piperazin-1-yl)butoxy)benzo[d]thiazole] | 5.15 | 7.16 | – | 7.19 | – | 30 to 40 | 6.96 | 5.80 | 7.35 | 7.03 | < 20 | 14 | not active; also recorded: no β-arrestin recruitment | 32 | 5.70 | 5.82 | pKi (5-HT5A): 5.85; pKi (H2-histamine receptor): 6.37; pKi (5-HT2C): 6.85 |
